In patent US20070117852A1, “(Hetero)cyclyl carboxanilides for controlling harmful fungi” (priority 2003, published 2007):

Test system: brown rust of wheat (Puccinia recondita)
Experiment: Protective treatment against brown rust of wheat (plants sprayed the day before inoculation)
Assay type: in vivo, Puccinia recondita on wheat seedlings cultivar "Kanzler"
Details: 63 ppm active compound, assessed visually after a further 7 days in greenhouse, untreated 90
Description: The active compounds were prepared as a stock solution comprising 0.25% by weight of active compound in acetone or dimethyl sulfoxide (DMSO). 1% by weight of the emulsifier Uniperol® EL (wetting agent having emulsifying and dispersant action based 10 on ethoxylated alkylphenols) was added to this solution, and the mixture was diluted with water to the desired concentration.
Leaves of potted wheat seedlings of the cultivar “Kanzler” were sprayed to runoff point with an aqueous suspension having the concentration of active compound stated below. The next day, the treated plants were dusted with spores of brown rust of wheat (Puccinia recondita). The plants were then placed in a chamber with high atmospheric humidity (90 to 95%), at 20-22° C., for 24 hours. During this time, the spores germinated and the germinal tubes penetrated into the leaf tissue. The next day, the test plants were returned into the greenhouse and cultivated at temperatures between 20 and 22° C. and at 65 to 70% relative atmospheric humidity for a further 7 days. The extent of the rust development on the leaves was then determined visually.

CC(=NOCc1ccccc1)C(C)Oc1ccccc1NC(=O)c1cccnc1Cl (stereo not shown) [IA-1, 2-Chloro-N-(2-(2-benzyloxyimino-1-methyl-n-propoxy)phenyl)nicotinamide]
Infection at 63 ppm (% of leaf area): 10 % of leaf area
